SMILES strings stand for the structures.

A short description of the first series: Determination of the log P values by HPLC (formic acid method). It counts as physicochemical. The following applies: reversed-phase HPLC column (C 18), reversed-phase column (C 18), acidic range (pH 3.4), 55° C. The protocol: 1) Description of Method for Determination of the Log P Values (Formic Acid Method)
Eluents for determination in the acidic range (pH 3.4):
Eluent A: acetonitrile+1 ml of formic acid/liter. Eluent B: water+0.9 ml of formic acid/liter.
The lambda max values were determined in the maxima of the chromatographic signals using the UV spectra from 200 nm to 400 nm.
As to `O=C(Nc1nn(-c2ccccc2Cl)cc1F)c1ccccc1Cl` [Compound I-1-27, 2-Chloro-N-[1-(2-chlorophenyl)-4-fluoro-1H-pyrazol-3-yl]benzamide], the chromatographic logP – broadly, a lipophilicity value derived from retention on a column – turned out to be 2.7.

In turn, `CCOc1c(F)cccc1-n1ccc(N)n1` [1-(2-ethoxy-3-fluorophenyl)-1H-pyrazole-3-amine] yielded a chromatographic logP of 2.04.

`Nc1ccn(-c2cncc(F)n2)n1` [1-(6-Fluoropyrazin-2-yl)-1H-pyrazole-3-amine] registered a chromatographic logP of 0.9. The compound `Nc1cnn(-c2ncc(F)cc2F)n1` [Ex.45-V, 2-(3,5-Difluoropyridin-2-yl)-2H-1,2,3-triazole-4-amine] had a chromatographic logP of 0.65. `Nc1ccn(-c2ncnc(F)c2F)n1` [1-(5,6-Difluoropyrimidin-4-yl)-1H-pyrazole-3-amine] yielded a chromatographic logP of 0.86. Same read-out and setting: as for `N#Cc1cc(F)c(-n2ccc(NC(=O)c3ccccc3C(F)(F)F)n2)c(F)c1` [Compound I-1-228, N-[1-(4-Cyano-2,6-difluorophenyl)-1H-pyrazol-3-yl]-2-(trifluoromethyl)benzamide], the figure is 2.66.

Staying with this series, now noted: reversed-phase column (C 18), acidic range (pH 3.4), 55° C.
Turning to `O=C(Nc1ccn(-c2nccnc2F)n1)c1c(F)cccc1F` [Compound I-1-177], the log P (as a rule, a log measure of how a compound divides between an organic and an aqueous phase) is reported as 1.94.

As to `Cc1nn(-c2ncccc2Cl)nc1NC(=O)c1ccccc1I` [Compound I-2-59], the log partition coefficient (log P) worked out at 2.28. On the same count and under the same terms, the value for `O=C(Nc1cnn(-c2ccc(C(F)(F)F)cn2)n1)c1ccccc1C(F)(F)F` [Compound I-2-42] was 3.02; that for `O=C(Nc1ccn(-c2ncccc2F)n1)c1ccccc1Br` [Compound I-1-130] was 2.12. Consider `O=C(Nc1ccn(-c2ccccc2Br)n1)c1cccnc1C(F)(F)F` [Compound I-1-56], for which the log partition coefficient (log P) was 2.54. Same read-out and setting: the value for `O=C(Nc1cnn(-c2cc(F)cnc2F)n1)c1ccccc1C(F)(F)F` [Compound I-2-62] was 2.77.

For `CC1=C(C(=O)Nc2ccn(-c3c(F)cccc3F)n2)SCCO1` [Compound I-1-101], the “log P” value came to 2.41. Same read-out and setting: as for `O=C(Nc1ccn(-c2ncc(F)cc2F)n1)c1cccnc1CC(F)(F)F` [Compound I-1-457], the figure is 2.13; as for `Cc1nn(C)c(C)c1C(=O)Nc1ccn(-c2ccccc2C(F)(F)F)n1` [Compound I-1-185], 2.16; as for `Cc1nn(C(F)F)c(C(=O)Nc2ccn(-c3ncc(F)cc3F)n2)c1F` [Compound I-1-444], 2.65. The same measure, in the same setting: the value for `O=C(Nc1ccn(-c2ccccc2Cl)n1)c1c(Cl)cccc1Cl` [Compound I-1-351] was 3.00; that for `O=C(Nc1ccn(-c2ncc(F)cc2F)n1)c1cccnc1OC(F)(F)F` [Compound I-1-464] was 2.53.

Turning to `CS(=O)(=O)c1ccccc1-n1ccc(NC(=O)c2ccccc2Cl)n1` [Compound I-1-126], the lipophilicity (log P) was determined as 1.96. For `N#Cc1cc(F)ccc1-n1ccc(NC(=O)c2ccccc2Cl)n1` [Compound I-1-630], the log partition coefficient (log P) is reported as 2.52.

As for `Cc1cc(NC(=O)c2cccnc2C(F)(F)F)nn1-c1ccccc1Cl` [Compound I-1-349], the “log P” value amounted to 2.13. The same measure, in the same setting: the value for `O=C(Nc1ccn(-c2ncc(F)cc2F)n1)c1c(C(F)(F)F)cc(F)c(F)c1F` [Compound I-1-516] was 2.98. Still for that read-out and setting: the value for `CCc1ccccc1C(=O)Nc1ccn(-c2c(F)cccc2F)n1` [Compound I-1-78] was 2.92; that for `Cc1ccsc1C(=O)Nc1ccn(-c2ccccc2Br)n1` [Compound I-1-60] was 3.16; that for `CC(C)c1nn(C)c(C(=O)Nc2ccn(-c3c(F)cccc3F)n2)c1[N+](=O)[O-]` [Compound I-1-290] was 2.93. For `Cn1nc(C(C)(C)C)c(Cl)c1C(=O)Nc1ccn(-c2c(F)cccc2F)n1` [Compound I-1-293], the “log P” value is recorded as 4.15.

Turning to `Cn1ncc(Br)c1C(=O)Nc1ccn(-c2c(F)cccc2F)n1` [Compound I-1-302], the “log P” value turned out to be 2.50.

`O=C(Nc1ccn(-c2nccnc2F)n1)c1ccccc1I` [Compound I-1-176]: the “log P” value was 2.18.

`O=C(Nc1ccn(-c2ncc(F)cc2F)n1)c1cccnc1Cl` [Compound I-1-152]: the “log P” value stood at 1.72. For the compound `O=C(Nc1ccn(-c2ncccn2)n1)c1ccccc1Br` [Compound I-1-168], the log partition coefficient (log P) turned out to be 1.72.

With `N#Cc1cc(F)ccc1-n1ccc(NC(=O)c2ccccc2C(F)(F)F)n1` [Compound I-1-626], the log partition coefficient (log P) turned out to be 2.67. As to `O=C(Nc1ccn(-c2ncccc2C(F)(F)F)n1)c1ccccc1I` [Compound I-1-427], the “log P” value was 2.72. In the case of `Cc1cc(NC(=O)c2ccccc2S(C)(=O)=O)nn1-c1ccccc1Cl` [Compound I-1-342], the “log P” value stood at 1.82. Turning to `O=C(Nc1ccn(-c2c(F)cccc2F)n1)c1ccccc1C1CC1` [Compound I-1-273], the lipophilicity (log P) was 2.89. `CC(C)Cc1nn(C)c(C(=O)Nc2ccn(-c3c(F)cccc3F)n2)c1[N+](=O)[O-]` [Compound I-1-289]: the “log P” value was determined as 3.19.

`O=C(Nc1ccn(-c2ncc(F)cc2F)n1)c1cccnc1C(F)(F)F` [Compound I-1-151]: the “log P” value turned out to be 2.02. Same read-out and setting: the value for `O=C(Nc1ccn(-c2ccccc2C(F)(F)F)n1)c1ccccc1Cl` [Compound I-1-4] was 2.92; that for `O=C(Nc1ccn(-c2ncccc2Br)n1)c1c(F)cccc1F` [Compound I-1-551] was 2.13. For `N#Cc1cn(-c2ccccc2Cl)nc1NC(=O)c1ccccc1Cl` [Compound I-1-362], the “log P” value was found to be 2.37. Still for that read-out and setting: as for `O=C(Nc1ccn(-c2ccccc2[N+](=O)[O-])n1)c1c(F)cccc1F` [Compound I-1-417], the figure is 2.34; as for `Cc1ccsc1C(=O)Nc1ccn(-c2cc(F)ccc2F)n1` [Compound I-1-71], 3.24; as for `O=C(Nc1ccn(-c2ncc(F)cc2F)n1)c1c(F)cccc1I` [Compound I-1-492], 2.56. Regarding `O=C(Nc1nn(-c2ccccc2Br)nc1Cl)c1cccnc1C(F)(F)F` [Compound I-2-28], the lipophilicity (log P) is 2.77. Still for that read-out and setting: as for `O=C(Nc1ccn(-c2cncc(F)n2)n1)c1cccnc1Br` [Compound I-1-404], the figure is 3.19. On the same count and under the same terms, as for `O=C(Nc1cnn(-c2ncccc2F)n1)c1ccsc1I` [Compound I-2-50], the figure is 2.20. As for `Cc1nn(-c2ccccc2Cl)nc1N(C(=O)c1ccccc1I)C(=O)c1ccccc1I` [Compound I-2-25], the lipophilicity (log P) turned out to be 4.68. The same measure, in the same setting: as for `Cc1nn(C(F)F)c(C(=O)Nc2ccn(-c3ncc(F)cc3F)n2)c1Cl` [Compound I-1-525], the figure is 2.84; as for `Cc1nn(C)cc1C(=O)Nc1ccn(-c2ncc(F)cc2F)n1` [Compound I-1-446], 1.54; as for `O=C(Nc1ccn(-c2c(F)cccc2F)n1)c1cc(F)ccc1C(F)(F)F` [Compound I-1-331], 2.80. Regarding `Cc1cc(NC(=O)c2ccccc2C(F)(F)F)nn1-c1ccc(F)cc1F` [Compound I-1-202], the “log P” value stood at 3.78.

Consider `O=C(Nc1ccn(-c2ccccc2C(F)(F)F)n1)c1ccccc1C(F)(F)F` [Compound I-1-6], for which the “log P” value was found to be 2.75.

Turning to `Cn1cc(Br)c(C(=O)Nc2ccn(-c3ncc(F)cc3F)n2)n1` [Compound I-1-520], the “log P” value is 2.15. Take `O=C(Nc1ccn(-c2cc(F)c(F)cc2F)n1)c1ccccc1I` [Compound I-1-196]: the “log P” value is 4.10.
